Patent publication US20060199876A1, “Bioceramic composite coatings and process for making same” (The University of British Columbia, priority 2005, published 2006)

Assay: Drug release from PCMC composite coating with PLGA diffusion barrier
Assay type: physicochemical
Conditions: release from HAP/PLGA PCMC coating of Example 9 (paclitaxel in HAP phase, Rapamycin in polymer phase) covered with 2 μm thick PLGA (85:15) layer
Protocol: Porous HAP coating was deposited on stent as in the above Example 2. The HAP porous coating stents was impregnated into 2 wt % paclitaxel methanol solution for 20 min and then removed extra solution by high speed spinning, then dried in an oven for 2 hours. The paclitaxel was filled into mesopores and partial into large pore micropores. The paclitaxel loaded stents were subsequently impregnated with 10 wt % PLGA acetone solution containing 2 wt % Rapamycin and then the extra solution removed by spinning. The biopolymer PLGA filled inside pores provides extra flexibility for HAP coatings and diffusion barrier for controlling drug release profiles. Rapamycin in the polymer phase will release much faster than that of paclitaxel only in the HAP phase.
As illustrated in the above Example 9, different drugs were encapsulated into the polymer and HAP phases. In order to add further controls for drug release profile, e.g. to further slow down the drug release rate, a functional diffusion barrier was deposited on the surface of the composite PCMC coating. In this particular example, a 2 μm thick PLGA (85:15) layer was deposited on the PCMC surface by spin-coating. Rapamycin release from such modified PCMC coating was sustained for 3-5 months and paclitaxel for 6-12 months.

- drug release sustained for: 6-12 months
SMILES: CC(=O)O[C@H]1C(=O)[C@@]2(C)[C@H]([C@H](OC(=O)c3ccccc3)[C@]3(O)C[C@H](OC(=O)[C@H](O)[C@@H](NC(=O)c4ccccc4)c4ccccc4)C(C)=C1C3(C)C)[C@]1(OC(C)=O)CO[C@@H]1C[C@@H]2O [paclitaxel]
